The structures appear in SMILES notation.

T1 sequence (P42336 whole entry): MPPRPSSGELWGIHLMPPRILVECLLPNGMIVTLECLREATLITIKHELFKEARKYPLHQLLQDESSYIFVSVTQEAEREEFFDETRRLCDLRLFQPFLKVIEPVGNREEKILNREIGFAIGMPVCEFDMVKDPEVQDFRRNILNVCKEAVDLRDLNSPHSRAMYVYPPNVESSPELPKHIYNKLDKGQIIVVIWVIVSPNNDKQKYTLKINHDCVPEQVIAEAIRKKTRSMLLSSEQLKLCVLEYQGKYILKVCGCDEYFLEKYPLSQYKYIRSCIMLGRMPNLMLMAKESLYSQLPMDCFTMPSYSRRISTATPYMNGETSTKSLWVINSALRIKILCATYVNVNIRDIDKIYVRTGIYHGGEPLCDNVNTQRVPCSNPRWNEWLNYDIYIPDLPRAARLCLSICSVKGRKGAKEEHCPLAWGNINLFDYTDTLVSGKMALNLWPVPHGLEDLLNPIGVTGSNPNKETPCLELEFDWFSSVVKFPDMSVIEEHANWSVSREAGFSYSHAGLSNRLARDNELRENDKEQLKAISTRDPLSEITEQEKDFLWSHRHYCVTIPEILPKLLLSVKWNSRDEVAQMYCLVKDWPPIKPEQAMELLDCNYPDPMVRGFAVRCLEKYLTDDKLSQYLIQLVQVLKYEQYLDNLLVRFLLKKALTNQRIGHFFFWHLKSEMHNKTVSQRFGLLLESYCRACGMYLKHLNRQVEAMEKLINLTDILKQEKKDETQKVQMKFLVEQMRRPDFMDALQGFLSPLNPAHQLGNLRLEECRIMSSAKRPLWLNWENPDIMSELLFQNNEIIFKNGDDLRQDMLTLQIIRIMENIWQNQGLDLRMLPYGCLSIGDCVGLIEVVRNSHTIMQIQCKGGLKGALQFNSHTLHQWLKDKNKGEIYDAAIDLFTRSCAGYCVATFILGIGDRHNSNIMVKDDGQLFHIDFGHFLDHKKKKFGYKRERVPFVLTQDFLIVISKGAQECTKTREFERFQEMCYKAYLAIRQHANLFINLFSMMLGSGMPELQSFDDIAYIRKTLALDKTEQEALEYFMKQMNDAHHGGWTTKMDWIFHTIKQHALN
T1 sequence (P27986 whole entry partner): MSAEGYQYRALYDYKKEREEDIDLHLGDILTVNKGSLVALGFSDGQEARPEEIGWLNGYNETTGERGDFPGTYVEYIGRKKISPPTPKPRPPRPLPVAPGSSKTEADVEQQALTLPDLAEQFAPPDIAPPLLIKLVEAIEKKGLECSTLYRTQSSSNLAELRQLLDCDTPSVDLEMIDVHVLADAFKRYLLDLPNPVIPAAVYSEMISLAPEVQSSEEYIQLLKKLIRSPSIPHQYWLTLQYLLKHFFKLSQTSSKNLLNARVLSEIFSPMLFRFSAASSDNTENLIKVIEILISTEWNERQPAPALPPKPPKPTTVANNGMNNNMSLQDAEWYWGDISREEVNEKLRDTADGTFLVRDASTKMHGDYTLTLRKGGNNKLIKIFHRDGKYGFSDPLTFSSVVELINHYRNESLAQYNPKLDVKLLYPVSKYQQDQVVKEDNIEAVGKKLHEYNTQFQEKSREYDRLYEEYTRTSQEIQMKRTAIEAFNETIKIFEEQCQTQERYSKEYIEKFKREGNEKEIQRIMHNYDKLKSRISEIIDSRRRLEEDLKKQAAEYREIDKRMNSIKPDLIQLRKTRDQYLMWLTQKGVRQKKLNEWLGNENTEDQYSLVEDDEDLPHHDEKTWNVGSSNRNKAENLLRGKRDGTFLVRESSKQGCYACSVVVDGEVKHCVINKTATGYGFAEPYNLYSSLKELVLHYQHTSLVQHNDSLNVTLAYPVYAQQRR

The assay concerns the target T1, PI3K alpha (Homo sapiens, UniProt P42336).
T1 construct: purchased Millipore Upstate
Put plainly: P110 Alpha TR-FRET Assay (PI3K alpha kinase assay, HTRF Transcreener ADP Assay). The format is biochemical. To be noted: PI3K (WT). Summed up:
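HTRF Transcreener ADP read-out of ADP formed by PI3K (50 ng enzyme) in 50 mM HEPES pH 7.5, 5 mM MgCl2, 1 mM DTT, 30 μM Na3VO4. Compound preincubated with enzyme 20 min; reaction started with 10 μM ATP and 5 μM PIP2, run 20 min, then ADP-d2/anti-ADP cryptate detection for 1 h.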
Take `NC(=O)c1ccccc1Nc1nc(-c2cccc3[nH]ncc23)nc(N2CCOCC2)n1` [Compound 1198, 2-((4-(1H-indazol-4-yl)-6-morpholino-1,3,5-triazin-2-yl)amino)benzamide]: the IC50 is greater than 5 µM.
The same measure for `Nc1cccc(-c2nc(NCC(=O)O)nc(N3CCOCC3)n2)c1` [Compound 1199, 2-((4-(3-aminophenyl)-6-morpholino-1,3,5-triazin-2-yl)amino)acetic acid]: greater than 5 µM.
Consider `CN(c1cccc(C(N)=O)c1)c1nc(-c2cccc3[nH]ncc23)nc(N2CCOCC2)n1` [Compound 1200, 3-((4-(1H-indazol-4-yl)-6-morpholino-1,3,5-triazin-2-yl)(methyl)amino)benzamide], for which the IC50 is less than 5 µM.
`NC(=O)c1cccc(Nc2nc(-c3cccc4[nH]ncc34)nc(N3CCOCC3)n2)c1` [Compound 1201, 3-((4-(1H-indazol-4-yl)-6-morpholino-1,3,5-triazin-2-yl)amino)benzamide]: the concentration for half-maximal inhibition (IC50) was less than 5 µM.
Regarding `O=C(O)c1cccc(Nc2nc(-c3cccc4[nH]ncc34)nc(N3CCOCC3)n2)c1` [Compound 1202, 3-((4-(1H-indazol-4-yl)-6-morpholino-1,3,5-triazin-2-yl)amino)benzoic acid], the IC50 was less than 5 µM.
`O=C(O)CNc1nc(-c2ccccc2)nc(N2CCOCC2)n1` [Compound 1203, 2-((4-morpholino-6-phenyl-1,3,5-triazin-2-yl)amino)acetic acid] registered an IC50 greater than 5 µM.
The same measure for `CN(C)C(=O)c1ccc(Nc2nc(-c3cccc4[nH]ncc34)nc(N3CCOCC3)n2)cc1` [Compound 1204, 4-((4-(1H-indazol-4-yl)-6-morpholino-1,3,5-triazin-2-yl)amino)-N,N-dimethylbenzamide]: less than 5 µM; for `c1cc(Nc2nc(-c3cccc4[nH]ncc34)nc(N3CCOCC3)n2)c2cn[nH]c2c1` [Compound 1205, N-(4-(1H-indazol-4-yl)-6-morpholino-1,3,5-triazin-2-yl)-1H-indazol-4-amine]: less than 5 µM.
The result for `O=C1CCN(c2nc(-c3cccc4[nH]ncc34)nc(N3CCOCC3)n2)CCN1` [Compound 1206, 1-21-[4-1-(1H-indazol-4-yl)-6-5-(morpholin-4-yl)-1,3,5-triazin-2-yl]-1,4-diazepan-5-one] reads less than 5 µM.
For `COC(=O)C1CCN(c2nc(-c3cccc4[nH]ncc34)nc(N3CCOCC3)n2)C1` (stereo not shown) [Compound 1207, methyl 1-12-[4-1-(1H-indazol-4-yl)-6-5-(morpholin-4-yl)-1,3,5-triazin-2-yl]pyrrolidine-3-carboxylate], the IC50 is less than 5 µM.
The same measure for `ON=C1CCN(c2nc(-c3cccc4[nH]ncc34)nc(N3CCOCC3)n2)CC1` [Compound 1208, N-{1-8-[4-1-(1H-indazol-4-yl)-6-5-(morpholin-4-yl)-1,3,5-triazin-2-yl]piperidin-4-ylidene}hydroxylamine]: less than 5 µM; for `CN(C)C(=O)C(Cc1ccccc1)Nc1nc(-c2cccc3[nH]ncc23)nc(N2CCOCC2)n1` (stereo not shown) [Compound 1209, 2-((4-(1H-indazol-4-yl)-6-morpholino-1,3,5-triazin-2-yl)amino)-N,N-dimethyl-3-phenylpropanamide]: less than 5 µM.
Compound `CN(C)C(=O)C(CCS(C)(=O)=O)Nc1nc(-c2cccc3[nH]ncc23)nc(N2CCOCC2)n1` (stereo not shown) [Compound 1210, 2-((4-(1H-indazol-4-yl)-6-morpholino-1,3,5-triazin-2-yl)amino)-N,N-dimethyl-4-(methylsulfonyl)butanamide] had an IC50 of less than 5 µM.
The result for `CS(=O)(=O)N1CCN(c2nc(-c3cccc4[nH]ncc34)nc(N3CCOCC3)n2)CC1` [Compound 1211, 4-7-[4-3-(4-16-methanesulfonylpiperazin-1-yl)-6-5-(morpholin-4-yl)-1,3,5-triazin-2-yl]-1H-indazole] reads less than 5 µM.
Regarding `Oc1nc(-c2cccc3[nH]ncc23)nc(N2CCOCC2)n1` [Compound 1212, 4-1-(1H-indazol-4-yl)-6-5-(morpholin-4-yl)-1,3,5-triazin-2-ol], the IC50 is less than 5 µM.
Compound `c1cc(-c2nc(N3CCCNCC3)nc(N3CCOCC3)n2)c2cn[nH]c2c1` [Compound 1213, 4-12-[4-3-(1,4-diazepan-1-yl)-6-5-(morpholin-4-yl)-1,3,5-triazin-2-yl]-1H-indazole] displayed an IC50 of less than 5 µM.
For `CN(C)C(=O)[C@H]1CC[C@H](Nc2nc(-c3cccc4[nH]ncc34)nc(N3CCOCC3)n2)CC1` [Compound 1214, (1r,4r)-4-((4-(1H-indazol-4-yl)-6-morpholino-1,3,5-triazin-2-yl)amino)-N,N-dimethylcyclohexanecarboxamide], the IC50 is less than 5 µM.
Take `CNC(=O)[C@H]1CC[C@@H](Nc2nc(-c3cccc4[nH]ncc34)nc(N3CCOCC3)n2)CC1` [Compound 1215, 4-((4-(1H-indazol-4-yl)-6-morpholino-1,3,5-triazin-2-yl)amino)-N-methylcyclohexanecarboxamide]: the IC50 is less than 5 µM.
The compound `CN(C)C(=O)[C@H]1CC[C@@H](Nc2nc(-c3cccc4[nH]ncc34)nc(N3CCOCC3)n2)CC1` [Compound 1216, 4-((4-(1H-indazol-4-yl)-6-morpholino-1,3,5-triazin-2-yl)amino)-N,N-dimethylcyclohexanecarboxamide] had a half-inhibitory concentration (IC50) of less than 5 µM.
In the case of `CN(C)C(=O)[C@H]1CCCN1c1nc(-c2cccc3[nH]ncc23)nc(N2CCOCC2)n1` [Compound 1217, (2R)-1-7-[4-1-(1H-indazol-4-yl)-6-5-(morpholin-4-yl)-1,3,5-triazin-2-yl]-N,N-dimethylpyrrolidine-2-carboxamide], the IC50 was less than 5 µM.
The result for `CNC(=O)N1CCN(c2nc(-c3cccc4[nH]ncc34)nc(N3CCOCC3)n2)CC1` [Compound 1218, 4-7-[4-1-(1H-indazol-4-yl)-6-5-(morpholin-4-yl)-1,3,5-triazin-2-yl]-N-methylpiperazine-1-carboxamide] reads less than 5 µM; that for `c1ccc(Nc2nc(-c3cccc4[nH]ncc34)nc(N3CCOCC3)n2)cc1` [Compound 1219, 4-(1H-indazol-4-yl)-6-morpholino-N-phenyl-1,3,5-triazin-2-amine], less than 5 µM; that for `OC1CCN(c2nc(-c3cccc4[nH]ncc34)nc(N3CCOCC3)n2)CC1` [Compound 1220, 1-8-[4-1-(1H-indazol-4-yl)-6-5-(morpholin-4-yl)-1,3,5-triazin-2-yl]piperidin-4-ol], less than 5 µM.
Take `O=C1CCN(c2nc(-c3cccc4[nH]ncc34)nc(N3CCOCC3)n2)CC1` [Compound 1221, 1-8-[4-1-(1H-indazol-4-yl)-6-5-(morpholin-4-yl)-1,3,5-triazin-2-yl]piperidin-4-one]: the IC50 was less than 5 µM.
The compound `NC1CCN(c2nc(-c3cccc4[nH]ncc34)nc(N3CCOCC3)n2)CC1` [Compound 1222, 1-8-[4-1-(1H-indazol-4-yl)-6-5-(morpholin-4-yl)-1,3,5-triazin-2-yl]piperidin-4-amine] registered a half-inhibitory concentration (IC50) of less than 5 µM.
The result for `CN(C)C(=O)CCNc1nc(-c2cccc3[nH]ncc23)nc(N2CCOCC2)n1` [Compound 1223, 3-((4-(1H-indazol-4-yl)-6-morpholino-1,3,5-triazin-2-yl)amino)-N,N-dimethylpropanamide] reads less than 5 µM; that for `c1cc(-c2nc(-c3cccc4[nH]ncc34)nc(N3CCOCC3)n2)c2cn[nH]c2c1` [Compound 1224, 4-12-[4-3-(1H-indazol-4-yl)-6-5-(morpholin-4-yl)-1,3,5-triazin-2-yl]-1H-indazole], less than 5 µM.
The same measure for `c1cc(-c2nc(NC3CCOCC3)nc(N3CCOCC3)n2)c2cn[nH]c2c1` [Compound 1225, 4-(1H-indazol-4-yl)-6-morpholino-N-(tetrahydro-2H-pyran-4-yl)-1,3,5-triazin-2-amine]: less than 5 µM; for `Cc1nc(-c2cccc3[nH]ncc23)nc(N2CCOCC2)n1` [Compound 1226, 4-7-[4-3-methyl-6-5-(morpholin-4-yl)-1,3,5-triazin-2-yl]-1H-indazole]: less than 5 µM; for `O=C(O)CCNc1nc(-c2cccc3[nH]ncc23)nc(N2CCOCC2)n1` [Compound 1227, 3-((4-(1H-indazol-4-yl)-6-morpholino-1,3,5-triazin-2-yl)amino)propanoic acid]: less than 5 µM.
The result for `CN1CCN(c2nc(-c3cccc4[nH]ncc34)nc(N3CCOCC3)n2)CC1` [Compound 1228, 4-18-[4-3-(4-15-methylpiperazin-1-yl)-6-5-(morpholin-4-yl)-1,3,5-triazin-2-yl]-1H-indazole] reads less than 5 µM.
Compound `c1cc(-c2nc(N3CCNCC3)nc(N3CCOCC3)n2)c2cn[nH]c2c1` [Compound 1229, 4-17-[4-5-(morpholin-4-yl)-6-3-(piperazin-1-yl)-1,3,5-triazin-2-yl]-1H-indazole] showed an IC50 of less than 5 µM.
The result for `O=C1CN(c2nc(-c3cccc4[nH]ncc34)nc(N3CCOCC3)n2)CCN1` [Compound 1230, 4-7-[4-1-(1H-indazol-4-yl)-6-5-(morpholin-4-yl)-1,3,5-triazin-2-yl]piperazin-2-one] reads less than 5 µM; that for `Nc1nc(-c2cccc3[nH]ncc23)nc(N2CCOCC2)n1` [Compound 1231, 4-2-(1H-indazol-4-yl)-6-0-(morpholin-4-yl)-1,3,5-triazin-2-amine], greater than 5 µM; that for `CC(C)(CO)Nc1nc(-c2cccc3[nH]ncc23)nc(N2CCOCC2)n1` [Compound 1232, 2-((4-(1H-indazol-4-yl)-6-morpholino-1,3,5-triazin-2-yl)amino)-2-methylpropan-1-ol], less than 5 µM.
Compound `c1cc(-c2nc(N3CCOCC3)nc(N3CCOCC3)n2)c2cn[nH]c2c1` [Compound 1233, 4-8-[4-3,6-5-bis(morpholin-4-yl)-1,3,5-triazin-2-yl]-1H-indazole] gave a half-inhibitory concentration (IC50) of less than 5 µM.
In turn, `CC(Nc1nc(-c2cccc3[nH]ncc23)nc(N2CCOCC2)n1)C(N)=O` (stereo not shown) [Compound 1234, 2-((4-(1H-indazol-4-yl)-6-morpholino-1,3,5-triazin-2-yl)amino)propanamide] displayed an IC50 of less than 5 µM.

In general, IC50 refers to the point on the concentration scale where inhibition reaches its midpoint.
